Laboratory results as given in patent US20130095122A1, “Peptides or Antibodies Which Bind to Melanoma Inhibitory Activity (MIA) Protein” (priority 2010, published 2013).

Columns and labels:
MIA = target: T1, MIA (Homo sapiens, UniProt Q16674); assay: NMR titration of 15N-labeled MIA with peptide; type: binding; conditions: unlabeled peptide, increasing amounts
T1 sequence (Q16674 25-131): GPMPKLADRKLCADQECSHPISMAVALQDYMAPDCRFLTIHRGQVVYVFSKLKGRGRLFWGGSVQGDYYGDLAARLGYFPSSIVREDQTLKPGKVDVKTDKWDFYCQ
Procedure: All spectra were recorded at 300 K and pH 7 on a Bruker DRX600 spectrometer equipped with a pulsed field gradient triple resonance probe. Water suppression in experiments recorded on samples in H2O was achieved by incorporation of a Watergate sequence into the various pulse sequences.^28-30 2D ^1H-^15N HSQC spectra with reduced signal loss due to fast exchanging protons were recorded using procedures described previously.^31 All spectra were processed with NMRPipe and analyzed with NMRView.^32-33 Data handling was performed with NMRView. Structure visualisation and superimpositions were done with PyMol (Delano, W. L., The PyMol Molecular Graphics System (2002) Delano Scientific, Palo Alto, Calif., USA).
The NMR titration of MIA with AR71 consisted of monitoring changes in chemical shifts and line widths of the backbone amide resonances of uniformly ^15N-enriched MIA samples as a function of ligand concentration.^34-37

[1] = tested on: murine B16 melanoma cells; assay: In vivo metastasis assay, Sig-AR71-HisTag expressing B16 clone injected into spleen; conditions: mice injected with Sig-AR71-HisTag expressing clone
Procedure: To determine the effect of peptide AR71 on the metastatic potential of murine B16 melanoma cells in vivo, a previously developed mouse metastases model was used.^19 1×10^5 cells of the AR71-HisTag expressing B16 cell clone AR71-His K4 as well as the corresponding mock control cells were injected into the spleen of mice (n=8 for mock control cells as well as for AR71-HisTag K4 cells, respectively). After nine days, mice were sacrificed, the livers were resected and the number and size of visible black tumor nodules on the surface of the livers was noticed. Tissues were fixed in formalin and afterwards paraffin embedded sections were hematoxylin and eosin stained for histological analysis.
Nine days after injection of the cells into the spleen, the mice were sacrificed, the livers were resected and tissue sections were prepared. Here, the inventors used the stably transfected murine B16 melanoma cells with a Sig-AR71-HisTag containing construct. […] The interference of AR71-HisTag with MIA-MIA interaction was also confirmed in the HTFP assay using wells coated with MIA-biotin (data not shown). Subsequently, a Sig-AR71-HisTag clone as well as a corresponding mock control was injected into the spleen of C57B16 mice, respectively. […]

[2] = target: T2, MIA-MIA interaction (MIA-Ru(bpy)3 / immobilized MIA-biotin) (Homo sapiens, UniProt Q16674); assay: heterogeneous transition-metal based fluorescence polarization (HTFP) assay of MIA-MIA interaction; type: binding; conditions: MIA-Ru(bpy)3 55 fM in wells coated with MIA-biotin
T2 sequence (Q16674 25-131): T1 sequence (Q16674 25-131)
Procedure: This becomes particularly evident in a heterogeneous transition metal-based fluorescence polarization assay (HTFP assay), wherein the ratio P/P0 is measured. P is the fluorescence polarization signal of a MIA protein labeled with a transition metal complex in the presence of substrate bound MIA-protein and of the peptide or antibody to be tested. P0 is the fluorescence polarization signal of free MIA-protein labeled with said luminescent transition metal complex in the absence of substrate bound MIA-protein and in the absence of said peptide or antibody. In the absence of the peptide or antibody, usually, the labeled MIA-protein would interact with the substrate bound MIA-protein, which, in turn, would contribute to a reduction in rotational mobility of the labeled MIA-protein, and therefore, the fluorescence polarization signal would increase upon such interaction. If, additionally, a peptide or antibody is present that interferes with such interaction, no or little dimerization/aggregation occurs and no or little increase in fluorescence polarization signal would be detected. […]
All measurements were performed at RT on a Polarstar Optima microplate reader (BMG Labtech, Offenburg, Germany). […]

Ac-FHWRYPLPLPGQ-NH2 [AR71, FHWRYPLPLPGQ]
binding of peptide to MIA (chemical shift perturbations) (MIA): MIA binds to this peptide ligand
adverse effects on other organs and tissues [1]: No adverse effects
interference with MIA-MIA interaction (decrease in fluorescence polarization signal, P/P0) [2]: particularly potent in dissociating MIA dimers
